Assay results: patent publication US11845990B2, “Prediction of sleep parameter and response to sleep-inducing compound based on PER3 VNTR genotype” (Vanda Pharmaceuticals Inc., priority 2007, dated 2023)

How the values were obtained:
healthy volunteers = assay: Previous tolerability studies in healthy volunteers; assay type: in vivo
[1] = Solubility and pH of saturated solution; assay type: physicochemical
[2] = tested on: healthy male and female subjects with induced transient insomnia; assay: Induced transient insomnia clinical study (first night effect plus 5-hour phase advance), polysomnography, by PER3 VNTR genotype; assay type: in vivo, human; parameters: greater sleep efficiency over subjects on placebo (full night) / lower sleep efficiency than subjects on placebo (full night) / sleep efficiency higher than in placebo, first third of the night / sleep efficiency higher than in placebo, second third of the night / sleep efficiency lower than in placebo, first third of the night / sleep efficiency lower than in placebo, second third of the night: concentration or dose not given beside the values
Text: The effect of this polymorphism was investigated with respect to various sleep parameters (latency to persistent sleep, wake after sleep onset, sleep efficiency), which evaluated objectively by polysomnography in healthy subjects treated with (1R-trans)-N-[[2-(2,3-dihydro-4-benzofuranyl)cyclopropyl]methyl]propanamide, or treated with a placebo, in a clinical protocol that models transient insomnia.
Transient insomnia can be induced in a laboratory setting as a result of a “first night effect” in which sleep onset and sleep maintenance are disrupted in normal sleeping adults by sleeping in an unfamiliar surrounding. This model of transient insomnia has been validated in several studies of normal sleeping adults. Insomnia can also be precipitated by other factors such as traveling across multiple time zones (jet lag). This condition can be reproduced in a sleep laboratory by forcing an earlier bedtime (phase advance). The study reported here used both, the first night effect and a 5-hour phase advance component, to increase the likelihood that transient insomnia will be induced. A multi-center, randomized, double-blind, placebo-controlled, parallel study was conducted to investigate the efficacy and safety of a single oral dose of (1R-trans)-N-[[2-(2,3-dihydro-4-benzofuranyl)cyclopropyl]methyl]propanamide (20 mg, 50 mg, and 100 mg) and matching placebo in healthy male and female subjects with induced transient insomnia. […] Latency to Persistent Sleep (LPS), Wake After Sleep Onset (WASO) and sleep efficiency (SE) were evaluated objectively by use of polysomnography.
More than 70% of subjects who enrolled in the clinical trial consented to the optional PG study. From those, 288 were genotyped for the PER3 VNTR polymorphism.

Q: Which “tolerability, multiple doses” value (healthy volunteers; multiple doses (up to 28 days) up to 150 mg) does the source give for `CCC(=O)NC[C@@H]1C[C@H]1c1cccc2c1CCO2` [(1R-trans)-N-[[2-(2,3-dihydro-4-benzofuranyl)cyclopropyl]methyl]propanamide] here?
A: Its value is “well-tolerated”.

Q: What about the “tolerability, single doses” value (healthy volunteers; single doses up to 300 mg) of the same molecule?
A: Its value is “well-tolerated”.

Q: And the “solubility in organic solvents” value ([1]; 95% ethanol, methanol, acetonitrile, ethyl acetate, isopropanol, polyethylene glycols (PEG-300 and PEG-400))?
A: The value was “very soluble or freely soluble”.

Q: What about the “native pH of a saturated solution in water” value ([1]; saturated solution in water) of the same molecule?
A: Its value is 8.5.

Q: And the “effect of pH on aqueous solubility” value ([1]; water)?
A: The value was “practically unaffected by pH”.

Q: And the solubility in water ([1]; water)?
A: The solubility in water was “only slightly soluble”.

Q: And the “shorter LPS period than with placebo” value ([2]; PER3 4/4 and 4/5 genotypes)?
A: Its value is 30 min.

Q: What about the “shorter LPS period than with placebo (percent)” value ([2]; PER3 4/4 and 4/5 genotypes) of the same molecule?
A: Its value is 56%.

Q: And the “smaller WASO than with placebo” value ([2]; PER3 4/4 and 4/5 genotypes)?
A: The value was 21 min.

Q: And the “smaller WASO than with placebo (percent)” value ([2]; PER3 4/4 and 4/5 genotypes)?
A: The value was 16%.

Q: And the “sleep efficiency higher than in placebo, first third of the night” value ([2]; PER3 4/4 and 4/5 genotypes, first third of night)?
A: The value was 29%.

Q: And the “greater sleep efficiency over subjects on placebo (full night)” value ([2]; PER3 4/4 and 4/5 genotypes, full night)?
A: The value was 12%.

Q: And the “sleep efficiency higher than in placebo, second third of the night” value ([2]; PER3 4/4 and 4/5 genotypes, second third of night)?
A: The value was 22.8%.

Q: And the “longer WASO than with placebo” value ([2]; PER3 5/5 genotype)?
A: The value was 32 min.

Q: And the “longer WASO than with placebo (percent)” value ([2]; PER3 5/5 genotype)?
A: Its value is 32.7%.

Q: And the “shorter LPS than with placebo” value ([2]; PER3 5/5 genotype)?
A: The value was 8 min.

Q: What about the “shorter LPS than with placebo (percent)” value ([2]; PER3 5/5 genotype) of the same molecule?
A: The value was 27%.

Q: And the “sleep efficiency lower than in placebo, first third of the night” value ([2]; PER3 5/5 genotype, first third of night)?
A: The value was 7.2%.

Q: What about the “lower sleep efficiency than subjects on placebo (full night)” value ([2]; PER3 5/5 genotype, full night) of the same molecule?
A: The value was 9.5%.

Q: What about the “sleep efficiency lower than in placebo, second third of the night” value ([2]; PER3 5/5 genotype, second third of night) of the same molecule?
A: Its value is 3.4%.

Q: And the “efficacy in improving LPS, WASO, and Sleep Efficiency” value ([2]; single oral dose 20, 50 or 100 mg, induced transient insomnia, vs placebo)?
A: The value was “efficacious”.

Q: What about the “sleep efficiency improvement in the third part of the night” value ([2]; third third of night, vs placebo) of the same molecule?
A: The value was “no improvement”.
